Columns and labels:
Assay in all cases: fluorescence quenching titration of drug with DNA
[1] = test system: D0-thioate (D0-PS) (DNA, duplex, phosphorothioate at all 11 linkages) CGCGCGCGCGCG; conditions: in serum (mouse serum), 37 °C, KD corrected for stoichiometry (per site)
[2] = test system: D0-L-thioate-C16 (DNA, duplex, phosphorothioate at all 23 linkages) CGCGCGCGCGCGCGCGCGCGCGCG; conditions: in serum (mouse serum), 37 °C, KD corrected for stoichiometry (per site)
[3] = test system: D1 (same sequence as G-quad) (DNA, G4) GGGCTTTTGGGC; conditions: K+ (50 mM K2HPO4, 100 mM KCl per Methods; Table S2 says phosphate sodium), pH 7.00, 20 °C, KD corrected for stoichiometry (per site)
[4] = test system: D0 (DNA, duplex) CGCGCGCGCGCG; conditions: Na+ (50 mM Na2HPO4, 100 mM NaCl), pH 7.00, 20 °C, KD corrected for stoichiometry (per site)
[5] = test system: D0-L-thioate (DNA, duplex, phosphorothioate at all 23 linkages) CGCGCGCGCGCGCGCGCGCGCGCG; conditions: in serum (mouse serum), 37 °C, KD corrected for stoichiometry (per site)
[6] = test system: D2 (DNA, G4) GGTTGGTGTGGTTGG; conditions: K+ (50 mM K2HPO4, 100 mM KCl per Methods; Table S2 says phosphate sodium), pH 7.00, 20 °C, KD corrected for stoichiometry (per site)
[7] = test system: Q2 (DNA, aptamer) GGCGACAAGGAAAATCCTTTCACGAAGTGGGTCGCCG; conditions: Na+ (50 mM NaH2PO4, adjusted with NaOH); pH 7.00, 20 °C; KD corrected for stoichiometry (per site)
[8] = test system: Q1 (DNA, aptamer) GACAAGGAAAATCCTTCAACGAAGTGGGTCG; conditions: Na+ (50 mM NaH2PO4, adjusted with NaOH); pH 7.00, 20 °C; KD corrected for stoichiometry (per site)
[9] = test system: Q0 (DNA, aptamer) GGCGACAAGGAAAATCCTTCAACGAAGTGGGTCGCC; conditions: Na+ (50 mM NaH2PO4, adjusted with NaOH); pH 7.00, 20 °C; KD corrected for stoichiometry (per site)

| Structure (SMILES) | KD [1] [nM] | KD [2] [nM] | KD [3] [nM] | KD [4] [nM] | KD [5] [nM] | KD [6] [nM] | KD [7] [nM] | KD [8] [nM] | KD [9] [nM] |
| --- | --- | --- | --- | --- | --- | --- | --- | --- | --- |
| COc1cccc2c1C(=O)c1c(O)c3c(c(O)c1C2=O)C[C@@](O)(C(=O)CO)C[C@@H]3O[C@H]1C[C@H](N)[C@H](O)[C@H](C)O1 | 1020 ± 20 | 578 ± 100 | 703 ± 80 | 133 ± 20 | 592 ± 100 | 3760 ± 300 |  |  |  |
| C=C[C@H]1CN2CC[C@H]1C[C@H]2[C@H](O)c1ccnc2ccc(OC)cc12 |  |  |  |  |  |  | 2740 ± 200 | 198 ± 6 | 89.7 ± 10 |
